Each molecule was assayed against T1, wild-type HIV-1 protease (Human immunodeficiency virus type 1 group M subtype B, UniProt P04585) (assay: Assay for Inhibition of Microbial Expressed HIV Protease (peptide substrate cleavage, LC-MS/MS readout)). Settings: E. coli expressed wild-type HIV-1 protease, mean of at least two independent experiments, read-out: HIV Pr Enzyme HIV1 PR IC50.
T1 construct: Escherichia coli expressed wild-type HIV-1 protease protein
Assay type: biochemical
In short: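 E. coli-expressed wild-type HIV-1 protease ([…]) was preincubated with inhibitor 30 min at room temperature in pH 5.5 acetate buffer (100 mM NaCl, 0.1% BSA). Then 400 μM octapeptide substrate was added and reacted 1 h at 30 °C; inhibition came from LC-MS/MS product peak areas, mean of ≥2 experiments.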
`Cn1ccc2c(-c3ncc4c(n3)CN(C(=O)c3cc(CN5C(=N)N[C@](CCCC(F)(F)F)(c6ccc(F)cc6)C5=O)ccc3C(F)(F)F)C4)cccc21` [Compound 41, (5R)-5-(4-fluorophenyl)-2-imino-3-[3-{[2-(1-methyl-1H-indol-4-yl)-5,7-dihydro-6H-pyrrolo[3,4-d]pyrimidin-6-yl]carbonyl}-4-(trifluoromethyl)benzyl]-5-(4,4,4-trifluorobutyl)imidazolidin-4-one] showed an IC50 of 4.23 nM. `CC(C)CCC1(c2ccccc2)NC(=N)N(Cc2cccc(C(=O)N3Cc4nccnc4C3)c2)C1=O` (stereo not shown) [Compound 193, 3-[3-(5,7-dihydro-6H-pyrrolo[3,4-b]pyrazin-6-ylcarbonyl)benzyl]-2-imino-5-(3-methylbutyl)-5-phenylimidazolidin-4-one] showed an IC50 of 4.89 nM. Work on `N=C1N[C@](C[C@@H]2CCOC2)(c2ccccc2)C(=O)N1Cc1ccc(C(F)(F)F)c(C(=O)N2Cc3nccnc3C2)c1` [Compound 128, (5R)-3-[3-(5,7-dihydro-6H-pyrrolo[3,4-b]pyrazin-6-ylcarbonyl)-4-(trifluoromethyl)-benzyl]-2-imino-5-phenyl-5-[(3R)-tetrahydrofuran-3-ylmethyl]-imidazolidin-4-one] yielded an IC50 of 67.9 nM. `CC(=O)NCc1cc2c(o1)CCN(C(=O)c1cc(CN3C(=N)NC(CCC(C)C)(c4ccc(F)cc4)C3=O)ccc1C(F)(F)F)C2` (stereo not shown) [Compound 178, N-[(5-{[5-{[4-(4-fluorophenyl)-2-imino-4-(3-methylbutyl)-5-oxoimidazolidin-1-yl]methyl}-2-(trifluoromethyl)phenyl]carbonyl}-4,5,6,7-tetrahydrofuro[3,2-c]pyridin-2-yl)methyl]acetamide] showed an IC50 of 71.6 nM. `CN(C)c1ncnc2c1CN(C(=O)c1cccc(CN3C(=N)NC(c4ccc(F)cc4)(c4ccc(F)cc4)C3=O)c1)C2` [Compound 220, 3-(3-{[4-(dimethylamino)-5,7-dihydro-6H-pyrrolo[3,4-d]pyrimidin-6-yl]carbonyl}benzyl)-5,5-bis(4-fluorophenyl)-2-iminoimidazolidin-4-one] was tested, and the IC50 was 11 nM. `N=C1NC(c2ccccc2)(c2ccccc2)C(=O)N1Cc1cccc(C(=O)N2CCn3cc(C(=O)C4CC4)nc3C2)c1` [Compound 250, 3-(3-{[2-(cyclopropylcarbonyl)-5,6-dihydroimidazo [1,2-a]pyrazin-7(8H)-yl]carbonyl}benzyl)-2-imino-5,5-diphenylimidazolidin-4-one] was tested, and the IC50 was 18.9 nM. With `CSc1nnc2n1CCN(C(=O)c1cc(CN3C(=N)N[C@](CCCC(F)(F)F)(c4ccc(F)cc4)C3=O)ccc1C(F)(F)F)C2` [Compound 50, (5R)-5-(4-fluorophenyl)-2-imino-3-[3-{[3-(methylsulfanyl)-5,6-dihydro[1,2,4]triazolo[4,3-a]pyrazin-7(8H)-yl]carbonyl}-4-(trifluoromethyl)benzyl]-5-(4,4,4-trifluorobutyl)imidazolidin-4-one] the IC50 was 5.49 nM. `CC(=O)c1cccc(-c2ncc3c(n2)CN(C(=O)c2cc(CN4C(=N)N[C@](CCCC(F)(F)F)(c5ccc(F)cc5)C4=O)ccc2C(F)(F)F)C3)c1` [Compound 59, (5R)-3-[3-{[2-(3-acetylphenyl)-5,7-dihydro-6H-pyrrolo[3,4-d]pyrimidin-6-yl]carbonyl}-4-(trifluoromethyl)benzyl]-5-(4-fluorophenyl)-2-imino-5-(4,4,4-trifluorobutyl)imidazolidin-4-one] gave an IC50 of 6.45 nM. In the case of `N=C1NC(c2ccccc2)(c2ccccc2)C(=O)N1Cc1ccc(Cl)c(C(=O)N2CCNC(=O)C2)c1` [Compound 380, 4-({2-chloro-5-[(2-imino-5-oxo-4,4-diphenylimidazolidin-1-yl)methyl]phenyl}carbonyl) piperazin-2-one], the IC50 is reported as 11.2 nM. `N=C1N[C@](CCCC(F)(F)F)(c2ccc(F)cc2)C(=O)N1Cc1ccc(C(F)(F)F)c(C(=O)N2Cc3cnc(NC4CCC4)nc3C2)c1` [Compound 85, (5R)-3-[3-{[2-(cyclobutylamino)-5,7-dihydro-6H-pyrrolo[3,4-d]pyrimidin-6-yl]carbonyl}-4-(trifluoromethyl)benzyl]-5-(4-fluorophenyl)-2-imino-5-(4,4,4-trifluorobutyl)imidazolidin-4-one] showed an IC50 of 14.4 nM. Molecule `N=C1NC(c2ccccc2)(c2ccccc2)C(=O)N1Cc1cccc(C(=O)N2CCn3nc(C(F)(F)F)nc3C2)c1` [Compound 301, 2-imino-5,5-diphenyl-3-(3-{[2-(trifluoromethyl)-5,6-dihydro[1,2,4]triazolo[1,5-a]pyrazin-7(8H)-yl]carbonyl}benzyl) imidazolidin-4-one] has an IC50 of 45.2 nM. In the case of `CCOC(=O)NC1CCN(C(=O)c2cc(F)cc(CN3C(=N)NC(c4ccccc4)(c4ccccc4)C3=O)c2)CC1` [Compound 344, ethyl [1-({3-fluoro-5-[(2-imino-5-oxo-4,4-diphenylimidazolidin-1-yl)methyl]phenyl}carbonyl)piperidin-4-yl]carbamate], the IC50 is reported as 81.4 nM. `CC(c1cccc(C(=O)N2Cc3cncnc3C2)c1)N1C(=N)NC(c2ccccc2)(c2ccccc2)C1=O` (stereo not shown) [Compound 266, 3-{1-[3-(5,7-dihydro-6H-pyrrolo[3,4-b]pyrazin-6-ylcarbonyl)phenyl]ethyl}-2-imino-5.5-diphenylimidazolidin-4-one] showed an IC50 of 26.1 nM. With `N=C1N[C@](CCCC(F)(F)F)(c2ccc(F)cc2)C(=O)N1Cc1ccc(C(F)(F)F)c(C(=O)N2Cc3cnc(-c4ccc(F)cc4)nc3C2)c1` [Compound 97, (5R)-5-(4-fluorophenyl)-3-[3-{[2-(4-fluorophenyl)-5,7-dihydro-6H-pyrrolo[3,4-d]pyrimidin-6-yl]carbonyl}-4-(trifluoromethyl)-benzyl]-2-imino-5-(4,4,4-trifluorobutyl)imidazolidin-4-one] the IC50 was 20.5 nM. In the case of `N=C1N[C@](CCCC(F)(F)F)(c2ccc(F)cc2)C(=O)N1Cc1ccc(C(F)(F)F)c(C(=O)N2CCN(c3cncnc3)CC2)c1` [Compound 88, (5R)-5-(4-fluorophenyl)-2-imino-3-{3-[(4-pyrimidin-5-ylpiperazin-1-yl)carbonyl]-4-(trifluoromethyl)-benzyl}-5-(4,4,4-trifluorobutyl)-imidazolidin-4-one], the IC50 is reported as 15.2 nM. In the case of `CC(C)Nc1ncc2c(n1)CN(C(=O)c1cc(CN3C(=N)N[C@](CCCC(F)(F)F)(c4ccc(F)cc4)C3=O)ccc1C(F)(F)F)C2` [Compound 51, (5R)-5-(4-fluorophenyl)-2-imino-3-[3-({2-[(1-methylethyl)amino]-5,7-dihydro-6H-pyrrolo[3,4-d]pyrimidin-6-yl}carbonyl)-4-(trifluoromethyl)benzyl]-5-(4,4,4-trifluorobutyl)imidazolidin-4-one], the IC50 is reported as 5.51 nM. For `COC(=O)N1CCN(C(=O)c2cccc(CN3C(=N)NC(c4ccc(F)cc4)(c4cccc(Br)c4)C3=O)c2)CC1` (stereo not shown) [Compound 240, methyl 4-[(3-{[4-(3-bromophenyl)-4-(4-fluorophenyl)-2-imino-5-oxoimidazolidin-1-yl]methyl}phenyl)carbonyl] piperazine-1-carboxylate], the IC50 was 15.2 nM. With `COc1ccc(CN2C(=N)NC(c3ccccc3)(c3ccccc3)C2=O)cc1C(=O)N1Cc2ccccc2C1` [Compound 371, 3-[3-(1,3-dihydro-2H-isoindol-2-ylcarbonyl)-4-methoxybenzyl]-2-imino-5,5-diphenylimidazolidin-4-one] the IC50 was 29.5 nM. In the case of `N=C1N[C@](CCCC(F)(F)F)(c2ccc(F)cc2)C(=O)N1Cc1ccc(C(F)(F)F)c(C(=O)N2Cc3cnc(-c4cnn5c4CCCC5)nc3C2)c1` [Compound 28, (5R)-5-(4-fluorophenyl)-2-imino-3-[3-{[2-(4,5,6,7-tetrahydropyrazolo-[1,5-a]pyridin-3-yl)-5,7-dihydro-6H-pyrrolo[3,4-d]pyrimidin-6-yl]carbonyl}-4-(trifluoromethyl)-benzyl]-5-(4,4,4-trifluorobutyl)imidazolidin-4-one], the IC50 is reported as 3.04 nM. `N=C1NC(c2ccc(F)cc2)(c2cccc(Br)c2)C(=O)N1Cc1cccc(C(=O)N2Cc3[nH]nc(C(F)(F)F)c3C2)c1` (stereo not shown) [Compound 212, 5-(3-bromophenyl)-5-(4-fluorophenyl)-2-imino-3-(3-{[3-(trifluoromethyl)-4,6-dihydropyrrolo [3,4-c]pyrazol-5(1H)-yl]carbonyl}benzyl) imidazolidin-4-one] showed an IC50 of 9.49 nM. Molecule `CC(c1cccc(C(=O)N2Cc3ccccc3C2)c1)N1C(=N)NC(c2ccccc2)(c2ccccc2)C1=O` (stereo not shown) [Compound 224, 3-{1-[3-(1,3-dihydro-2H-isoindol-2-ylcarbonyl)phenyl]ethyl}-2-imino-5,5-diphenylimidazolidin-4-one] has an IC50 of 11.9 nM. `N=C1NC(c2ccc(F)cc2)(c2ccc(F)cc2)C(=O)N1Cc1cncc(C(=O)N2CCN(C(=O)OCCOCc3ccccc3)CC2)c1` [Compound 391, 2-(benzyloxy)ethyl 4-[(5-{[4,4-bis(4-fluorophenyl)-2-imino-5-oxoimidazolidin-1-yl]methyl}pyridin-3-yl)carbonyl]piperazine-1-carboxylate] gave an IC50 of 13.6 nM. For `CC(C)CC[C@]1(c2ccccc2)NC(=N)N([C@@H]2CCS(=O)(=O)c3ccc(C(=O)N4Cc5nccnc5C4)cc32)C1=O` [Compound 111, (5R)-3-[(4R)-6-(5,7-dihydro-6H-pyrrolo[3,4-b]pyrazin-6-ylcarbonyl)-1,1-dioxido-3,4-dihydro-2H-thiochromen-4-yl]-2-imino-5-(3-methylbutyl)-5-phenylimidazolidin-4-one], the IC50 was 28.3 nM. `COC(=O)N1CCN(C(=O)c2cccc([C@@H](C)N3C(=N)N[C@](CC(C)C)(c4ccccc4)C3=O)c2)CC1` [Compound 279, methyl 4-[(3-{(1R)-1-[2-imino-4-(2-methylpropyl)-5-oxo-4-phenylimidazolidin-1-yl]ethyl}phenyl)carbonyl] piperazine-1-carboxylate] showed an IC50 of 30.5 nM. `C[C@H](c1cccc(C(=O)N2Cc3ccccc3C2)c1)N1C(=N)NC(c2ccc(F)cc2)(c2ccc(F)cc2)C1=O` [Compound 231, 3-{(1R)-1-[3-(1,3-dihydro-2H-isoindol-2-ylcarbonyl)phenyl]ethyl}-5,5-bis(4-fluorophenyl)-2-iminoimidazolidin-4-one] was tested, and the IC50 was 13.3 nM.

Source: US20200069691A1, “HETEROCYCLIC COMPOUNDS AS HIV PROTEASE INHIBITORS” (Merck Sharp & Dohme Corp., priority 2016, published 2020)
